Reference: patent US20120324604A1, “PESTICIDAL MIXTURES CONTAINING ISOXAZOLINE DERIVATIVES AND A FUNGICIDE” (priority 2010, published 2012)
Several values for one entry are separate records, joined by “and”; a condition that tells them apart may be missing. Equal values may be shown once.

Experiments:
Type in all cases: cell-based
[1] = system: Glomerella lagenarium (syn. Colletotrichum lagenarium); test: Glomerella lagenarium (Anthracnose of Cucurbits) growth inhibition, microtiter plate, photometric; conditions: alone
Description: Glomerella lagenarium (syn. Colletotrichum lagenarium), Anthracnose of Cucurbits:
(§1) Conidia of the fungus from cryogenic storage were directly mixed into nutrient broth (potato dextrose broth). After placing a (DMSO) solution of the test compounds into a microtiter plate (96-well format) the nutrient broth containing the fungal spores was added.

[2] = system: Mycosphaerella arachidis (syn. Cercospora arachidicola); test: Mycosphaerella arachidis (Brown Leaf Spot of Groundnut) growth inhibition, microtiter plate, photometric; conditions: alone
Description: Mycosphaerella arachidis (syn. Cercospora arachidicola), Brown Leaf Spot of Groundnut (Peanut):
as §1

Gaeumannomyces graminis = Gaeumannomyces graminis growth inhibition, microtiter plate, photometric
Description: Mycelial fragments of the fungus from cryogenic storage were directly mixed into nutrient broth (potato dextrose broth). After placing a (DMSO) solution of the test compounds into a microliter plate (96-well format) the nutrient broth containing the fungal spores was added.

Septoria tritici = Septoria tritici (Leaf Blotch) growth inhibition, microtiter plate, photometric
Description: Septoria tritici (Leaf Blotch):
as §1

Rhizoctonia solani = Rhizoctonia solani (Foot Rot, Damping-Off) growth inhibition, microtiter plate, photometric; conditions: applied alone
Description: Rhizoctonia solani (Foot Rot, Damping-Off):
Mycelial fragments of the fungus from cryogenic storage were directly mixed into nutrient broth (potato dextrose broth). After placing a (DMSO) solution of the test compounds into a microtiter plate (96-well format) the nutrient broth containing the fungal spores was added.

Fusarium culmorum = Fusarium culmorum (Root Rot) growth inhibition, microtiter plate, photometric; conditions: alone, 2 PPM AI
Description: Fusarium culmorum (Root Rot):
as §1

## CO/C=C(\C(=O)OC)c1ccccc1Oc1cc(Oc2ccccc2C#N)ncn1 [Azoystrobin]
[1]; 0.0078125 ppm AI
  AVERAGE DEAD IN %: 0%
[1]; 0.015625 ppm AI
  AVERAGE DEAD IN %: 50%
[1]; 0.03125 ppm AI
  AVERAGE DEAD IN %: 50%
[1]; 0.0625 ppm AI
  AVERAGE DEAD IN %: 70%

## Cn1cc(C(=O)Nc2cccc3c2C2CCC3C2=C(Cl)Cl)c(C(F)F)n1 (stereo not drawn) [COMPOUND III]
[2]; 0.0078125 ppm AI
  AVERAGE DEAD IN %: 0%
[2]; 0.015625 ppm AI
  AVERAGE DEAD IN %: 0%
[2]; 0.03125 ppm AI
  AVERAGE DEAD IN %: 20%
[2]; 0.0625 ppm AI
  AVERAGE DEAD IN %: 90%
[2]; 0.03125 PPM AI
  AVERAGE DEAD IN %: 70% and 50%
[2]; 0.0625 PPM AI
  AVERAGE DEAD IN %: 100% and 70% and 90%
[2]; 0.125 PPM AI
  AVERAGE DEAD IN %: 90%
Gaeumannomyces graminis; single compound at 0.00390625 ppm AI
  AVERAGE DEAD IN %: 0%
Gaeumannomyces graminis; single compound at 0.0078125 ppm AI
  AVERAGE DEAD IN %: 0%
Gaeumannomyces graminis; single compound at 0.0625 ppm AI
  AVERAGE DEAD IN %: 70% and 90%
Gaeumannomyces graminis; single compound at 0.125 ppm AI
  AVERAGE DEAD IN %: 90%
Gaeumannomyces graminis; single compound at 0.25 ppm AI
  AVERAGE DEAD IN %: 100%
Gaeumannomyces graminis; single compound at 0.5 ppm AI
  AVERAGE DEAD IN %: 100%
Gaeumannomyces graminis; single compound at 1 ppm AI
  AVERAGE DEAD IN %: 100%
Gaeumannomyces graminis; single compound at 2 ppm AI
  AVERAGE DEAD IN %: 100%
Septoria tritici; 0.125 ppm AI, alone
  AVERAGE DEAD IN %: 20%
Septoria tritici; 0.25 ppm AI, alone
  AVERAGE DEAD IN %: 70% and 50%
Septoria tritici; 0.5 ppm AI, alone
  AVERAGE DEAD IN %: 90%
Septoria tritici; COMPOUND III alone, 0.0078125 ppm AI
  AVERAGE DEAD IN % COMPOUND III: 0%
Septoria tritici; COMPOUND III alone, 0.015625 ppm AI
  AVERAGE DEAD IN % COMPOUND III: 0%
Septoria tritici; COMPOUND III alone, 0.03125 ppm AI
  AVERAGE DEAD IN % COMPOUND III: 0%
Septoria tritici; COMPOUND III alone, 0.0625 ppm AI
  AVERAGE DEAD IN % COMPOUND III: 0%
Septoria tritici; COMPOUND III alone, 0.125 ppm AI
  AVERAGE DEAD IN % COMPOUND III: 20%
Septoria tritici; COMPOUND III alone, 0.25 ppm AI
  AVERAGE DEAD IN % COMPOUND III: 50% and 70%
Septoria tritici; COMPOUND III alone, 0.5 ppm AI
  AVERAGE DEAD IN % COMPOUND III: 70%
Septoria tritici; COMPOUND III alone, 1 ppm AI
  AVERAGE DEAD IN % COMPOUND III: 90%
Rhizoctonia solani; 0.03125 ppm AI
  AVERAGE DEAD IN %: 90%
[1]; 0.0078125 ppm AI
  AVERAGE DEAD IN %: 0%
[1]; 0.015625 ppm AI
  AVERAGE DEAD IN %: 0%
[1]; 0.125 ppm AI
  AVERAGE DEAD IN %: 50%

## CC(C1CC1)C(O)(Cn1cncn1)c1ccc(Cl)cc1 (stereo not drawn) [Cyproconazole]
[2]; 0.125 ppm AI
  AVERAGE DEAD IN %: 70%
[2]; 0.0625 PPM AI
  AVERAGE DEAD IN %: 0%
[2]; 0.125 PPM AI
  AVERAGE DEAD IN %: 20%
[2]; 0.25 PPM AI
  AVERAGE DEAD IN %: 70% and 100%
[2]; 0.5 PPM AI
  AVERAGE DEAD IN %: 100%
Gaeumannomyces graminis; single compound at 0.25 ppm AI
  AVERAGE DEAD IN %: 20%
Gaeumannomyces graminis; single compound at 0.5 ppm AI
  AVERAGE DEAD IN %: 50% and 90%
Gaeumannomyces graminis; single compound at 1 ppm AI
  AVERAGE DEAD IN %: 70%
Gaeumannomyces graminis; single compound at 2 ppm AI
  AVERAGE DEAD IN %: 90%
Septoria tritici; 0.25 ppm AI, alone
  AVERAGE DEAD IN %: 20%
Septoria tritici; 0.5 ppm AI, alone
  AVERAGE DEAD IN %: 50%
Septoria tritici; 1 ppm AI, alone
  AVERAGE DEAD IN %: 70%
Septoria tritici; 2 ppm AI, alone
  AVERAGE DEAD IN %: 90%
Septoria tritici; Cyproconazole alone, 0.5 ppm AI
  AVERAGE DEAD IN % Cyproconazole: 50%
Septoria tritici; Cyproconazole alone, 1 ppm AI
  AVERAGE DEAD IN % Cyproconazole: 70%
Septoria tritici; Cyproconazole alone, 2 ppm AI
  AVERAGE DEAD IN % Cyproconazole: 90%
Septoria tritici; alone, 0.25 ppm AI
  AVERAGE DEAD IN %: 0%
Septoria tritici; alone, 0.5 ppm AI
  AVERAGE DEAD IN %: 50%
Septoria tritici; alone, 1 ppm AI
  AVERAGE DEAD IN %: 70%
Septoria tritici; alone, 2 ppm AI
  AVERAGE DEAD IN %: 70%
Rhizoctonia solani; 0.25 ppm AI
  AVERAGE DEAD IN %: 20%
Rhizoctonia solani; 2 ppm AI
  AVERAGE DEAD IN %: 70% and 100%
Fusarium culmorum
  AVERAGE DEAD IN %: 20%
